“And” between values parts separate entries of the source, which are not always exact repeats. Equal entries are not always repeated. Where no end group is shown, it is not given here.
Assays:
[1] = system: Pseudomonas aeruginosa PA CRM-9027; assay: Broth microdilution, PA CRM-9027 (ear-eye infections); assay type: cell-based, Pseudomonas aeruginosa (CRM-9027); settings: PA CRM-9027
[2] = system: Pseudomonas aeruginosa PA BAA-2110; assay: Broth microdilution, PA BAA-2110 (lung infection in cystic fibrosis); assay type: cell-based, Pseudomonas aeruginosa (BAA-2110); settings: PA BAA-2110
[3] = system: mixed bacterial infection (PA, SA and ST); assay: Broth microdilution, mixed bacterial infection; assay type: cell-based; settings: mixed infection
Summary of the method: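 CLSI broth microdilution in cation-adjusted MH2 broth, ~5×10^5 CFU/mL inoculum grown to OD600 ~0.2, incubated overnight at 37° C. with peptides. Bactericidal effect read as CFU after plating wells on MH2 agar overnight, normalized to untreated media control (100%). Mixed infection: PA, SA and ST colonies co-cultured, then same protocol.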

[4] = system: bacteria; assay: Comparison of wild-type peptide E1A to V8LQ19L (Table 14)
Excerpt: Active peptide sequences based on ENO3 exerting significant bactericidal antibiofilm properties, and relevant to chronic wound healing are previously disclosed. The previously disclosed antimicrobial peptides (AMPs) are longer (>22-residues) in length, which would be more costly in production.

[5] = Comparison of AMPs in clinical trial with V8LQ19L (Table 13); settings: ✓ / X
[6] = system: critical and high priority pathogens (WHO); assay: Antibacterial effect against WHO critical and high priority pathogens; assay type: cell-based; settings: FIG. 10
[7] = system: Staphylococcus aureus (SA); assay: Antimicrobial resistance evolution assay, SA; assay type: cell-based; settings: serial passaging; resistance = >4-fold MIC change
Excerpt: The development of antimicrobial resistance is defined by greater than a 4-fold change to their initial minimum inhibitory concentration (MIC) at day 1. Exemplary bacteria strains Pseudomonas aeruginosa (PA) and Staphylococcus aureus (SA) are subjected to continuous daily serial passaging over several days, with treatment of exemplary variant peptides E1AM2 (SEQ ID NO: 2) and Q19L (SEQ ID NO: […]) at subinhibitory concentrations. […] The treatments were discontinued when the MIC increased by more than four-fold from the initial MIC or when MIC reached >100 μM.
Briefly, sequential passaging of PA, and SA cells was done with sub-inhibitory concentrations of antibiotics or E1AM2 up to 4 weeks. The cells grown in those concentrations of antibiotics or peptides were diluted to A600 nm (OD600) of ~0.2 and serially passaged daily with the same concentrations at 37° C. with agitation at 24 h intervals.

[8] = system: Pseudomonas aeruginosa (PA); assay: Broth microdilution anti-bacterial assay (CLSI), Pseudomonas aeruginosa; assay type: cell-based, Pseudomonas aeruginosa (ATCC 14213); settings: PA; for MIC: overnight, 37° C., ≥99% inhibition; for MBC: ≥99% killing
[9] = Hemolysis assay; assay type: cell-based, human; settings: human, red blood cells; at respective MIC/MBC concentrations; melittin 3.125 μM = 100%
Method: The hemolytic score of the peptide variants and pexiganan (SEQ ID NO: 54) are compared to a strong hemolytic peptide, melittin 12 as a control. […] The minimum peptide concentration corresponding to 10% hemolysis (minimal hemolysis concentration, HC) of E1AM2=50 μM, V8LQ19L=12.5 μM, V8LQ19L C-2=3.125 μM, and pexiganan=12.5 μM respectively. Readings of the melittin at 3.125 μM were normalised to 100%.
Examination of hemolytic activity of ultra-short peptides was performed by isolating the red blood cells (RBCs) from human blood samples by centrifugation (1000 g, 4° C., 10 min) and resuspension in 27 mL PBS. This washing step was repeated four times before the RBCs were diluted to a 10% (v/v) suspension. […] Hemolytic properties of E1AM2 and pexiganan were evaluated with melittin used as a positive control, and PBS as a negative control. The plates were incubated at 37° C., for 30 min and then centrifuged (1258 g, 4° C., 6 min). 75 μL of supernatant were transferred into a flat-bottom clear 96-well plate and the OD576 nm was read. Readings of the melittin sample at 3.125 μM were normalized to 100%.

[10] = system: human keratinocytes (HaCaT); assay: Cell proliferation assay, HaCaT keratinocytes; assay type: cell-based
Method: Wound closure was compared with the untreated samples (circle, red highlight). For improved clarity, error bars have been omitted from this representation. […] Each value is the mean±SD (n=3). Statistical significance was assessed using ANOVA for multiple comparisons (Dunnett's multiple comparisons test). **** p<0.0001, *** p<0.001, ** p<0.01, *p<0.05, ns denotes nonsignificance, p >0.05.
CyQUANT™ Direct Cell Proliferation Assay (ThermoFisher Scientific, Catalogue) was performed as per manufacturer's instructions to determine the safety of the peptides to human keratinocytes. […] The fluorescence intensity and number of stained cells were determined using the LionHeart FX Automated Microscope (BioTek, VT, USA).

“E1AM2: untagged (E1AM2), KKLLKKWVKLSKKALKLAQSL” gave an MBC [1] of 3.125 µM, an MIC [1] of 3.125 µM and an MBC [2] of 6.25 µM. It also gave an MIC [2] of 3.125 µM and an MBC [3] of 6.25 µM.
For KKLLKKWLKLSKKALKLALSL-NH2 [V8LQ19L], the Cationicity [4] was “Cationic (bacterial membrane”, the “Mechanism of killing bacteria” value [4] was “Membrane disintegration” and the MIC/MBC ([4]; bacteria not named in Table 14) was 1.56 µM. For the same substance, the Broad spectrum activity [5] was “✓”, the Healing support [5] was “✓” and the “antibacterial effect against WHO priority pathogens” value [6] was “potent fast-acting, broad-spectrum antibacterial effect”. For the same substance, the “MIC values against WHO priority pathogens (in words)” value ([6]; compared to pexiganan and antibiotics) was “the lowest minimum inhibitory concentration (MIC) values”, the “development of antimicrobial resistance, SA” value [7] was “effective in preventing the acquisition of AMR” and the MIC [8] was 1.56 µM. The MIC ([8]; listed as VBLQ19L) was 1.58 µM, the MBC [8] was 1.56 µM and the MBC ([8]; listed as VBLQ19L) was 1.58 µM and 1.56 µM. The hemolysis at 0.5 h [9] was ~0%, the “Cytotoxicity at high concentration (100 μM)” value ([10]; 100 μM, cell line not named in Table 15) was “Non-cytotoxic” and the “cytotoxicity to HaCaT” value ([10]; 24 h, up to highest tested concentrations (peptide), 3% (H2O2)) was “noncytotoxic”.

Source: US20260327263A1, “Anti-Bacterial Peptides” (priority 2023, published 2026)
